# Data from ChEMBL document CHEMBL1201862, “PubChem BioAssay data set” (2004).
# Calls of active or inactive are those of the source.
# Tests used:
# [1] = target: T1, Heat shock factor protein 1 (Mus musculus, UniProt P38532); test: inhibition of MG132-induced HSE-luciferase signal, confirmation, cell-based, NIH3T3, luminescence, dose retest (AID 2382); assay type: functional;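 also: NIH3T3 fibroblasts with HSF1-driven luciferase reporter stressed by proteasome inhibitor MG132; luminescence from HSF1-driven luciferase expression after 8 hours of MG132 stress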
# T1 sequence (P38532 whole entry): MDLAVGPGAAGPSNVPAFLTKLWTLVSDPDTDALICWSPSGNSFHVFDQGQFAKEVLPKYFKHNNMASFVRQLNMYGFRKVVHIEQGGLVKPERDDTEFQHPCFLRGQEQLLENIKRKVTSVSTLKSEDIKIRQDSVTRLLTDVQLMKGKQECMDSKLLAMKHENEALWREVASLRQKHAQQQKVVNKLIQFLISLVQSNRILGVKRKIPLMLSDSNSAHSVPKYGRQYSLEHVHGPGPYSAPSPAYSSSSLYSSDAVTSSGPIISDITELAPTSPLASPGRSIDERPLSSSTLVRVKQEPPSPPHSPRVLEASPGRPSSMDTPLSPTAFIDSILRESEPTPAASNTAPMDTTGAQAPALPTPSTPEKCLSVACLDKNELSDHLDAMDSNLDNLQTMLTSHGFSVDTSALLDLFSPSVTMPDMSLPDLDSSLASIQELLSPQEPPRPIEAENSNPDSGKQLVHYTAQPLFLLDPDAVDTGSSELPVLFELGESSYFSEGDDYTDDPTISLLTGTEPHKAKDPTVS
# [2] = target: Glucose-6-phosphate 1-dehydrogenase (Homo sapiens, UniProt P11413); test: human G6PD enzyme inhibitors, dose response, selectivity assay for P. falciparum G6PD inhibitor project, biochemical, fluorescence (AID 504792); assay type: functional
# [3] = target: T2, Sentrin-specific protease 1 (Homo sapiens, UniProt Q9P0U3); test: potency of human SENP1 inhibitors, dose response, biochemical, kinetic FRET (AID 651697); assay type: functional; settings: read-out: IC50_Mean
# T2 sequence (Q9P0U3 whole entry): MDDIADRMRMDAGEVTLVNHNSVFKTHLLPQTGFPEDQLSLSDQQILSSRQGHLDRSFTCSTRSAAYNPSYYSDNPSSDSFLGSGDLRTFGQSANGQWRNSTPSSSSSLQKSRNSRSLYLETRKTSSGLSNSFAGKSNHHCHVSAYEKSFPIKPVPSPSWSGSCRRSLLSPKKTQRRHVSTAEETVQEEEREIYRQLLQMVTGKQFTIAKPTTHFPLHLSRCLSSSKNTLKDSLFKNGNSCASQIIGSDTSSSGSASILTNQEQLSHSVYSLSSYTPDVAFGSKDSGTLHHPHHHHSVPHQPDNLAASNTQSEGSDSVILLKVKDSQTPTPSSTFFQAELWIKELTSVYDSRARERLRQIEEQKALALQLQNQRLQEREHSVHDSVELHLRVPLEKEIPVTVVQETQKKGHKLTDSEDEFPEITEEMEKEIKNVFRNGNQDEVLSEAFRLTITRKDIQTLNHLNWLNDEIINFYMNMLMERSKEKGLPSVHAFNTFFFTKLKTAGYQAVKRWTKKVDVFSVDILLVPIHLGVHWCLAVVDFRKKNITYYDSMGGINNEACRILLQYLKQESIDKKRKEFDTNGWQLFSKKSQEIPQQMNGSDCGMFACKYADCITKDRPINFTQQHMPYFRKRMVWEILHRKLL
# [4] = target: T2, Sentrin-specific protease 1; test: Dose response confirmation of small molecule inhibitors of the catalytic domain of the SUMO protease, SENP1 in a FRET assay.; assay type: functional; settings: read-out: IC50_Mean
# [5] = target: G-protein coupled receptor 55 (Homo sapiens, UniProt Q9Y2T6); test: GPR55 antagonists blocking LPI-driven arrestin recruitment, primary screen, imaging, U2OS, beta-arrestin-GFP, LPI agonist (AID 2013); assay type: functional;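 also: antagonist potency measured as reduced agonist-driven arrestin aggregation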
# [6] = CRF-BP/CRF-R2 complex antagonists, dose response, cell-based, uHTS hits, 384-well (AID 651639); assay type: functional, Homo sapiens; settings: read-out: IC50_Mean
# [7] = target: T3, Fatty acid synthase (Homo sapiens, UniProt P49327); test: FAS thioesterase domain inhibitors, dose response, biochemical, endpoint fluorescence intensity, uHTS hits (AID 624327); assay type: functional;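 also: fluorescence from hydrolysis of an O-methyl fluorescein acyl ester substrate by the enzyme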
# [8] = target: T4, Corticotropin-releasing factor receptor 2/Corticotropin-releasing factor-binding protein (Homo sapiens, UniProt P24387+Q13324); test: activators of CRF receptor 2 with binding protein – uHTS hits, confirmation (AID 602473); assay type: functional; settings: read-out: EC50_Mean
# T4 sequence (Q13324 whole entry): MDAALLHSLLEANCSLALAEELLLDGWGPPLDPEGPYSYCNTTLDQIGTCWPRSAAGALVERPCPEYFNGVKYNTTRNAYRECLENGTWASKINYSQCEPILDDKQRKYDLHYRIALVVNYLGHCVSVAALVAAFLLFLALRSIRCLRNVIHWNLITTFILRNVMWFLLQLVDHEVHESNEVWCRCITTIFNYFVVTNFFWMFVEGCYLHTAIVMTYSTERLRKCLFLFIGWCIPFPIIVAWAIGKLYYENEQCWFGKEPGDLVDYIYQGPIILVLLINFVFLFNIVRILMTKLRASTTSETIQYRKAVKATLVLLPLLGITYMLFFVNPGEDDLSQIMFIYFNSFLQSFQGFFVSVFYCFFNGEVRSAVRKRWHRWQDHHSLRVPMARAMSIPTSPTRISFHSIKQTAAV
# T4 sequence (P24387 whole entry): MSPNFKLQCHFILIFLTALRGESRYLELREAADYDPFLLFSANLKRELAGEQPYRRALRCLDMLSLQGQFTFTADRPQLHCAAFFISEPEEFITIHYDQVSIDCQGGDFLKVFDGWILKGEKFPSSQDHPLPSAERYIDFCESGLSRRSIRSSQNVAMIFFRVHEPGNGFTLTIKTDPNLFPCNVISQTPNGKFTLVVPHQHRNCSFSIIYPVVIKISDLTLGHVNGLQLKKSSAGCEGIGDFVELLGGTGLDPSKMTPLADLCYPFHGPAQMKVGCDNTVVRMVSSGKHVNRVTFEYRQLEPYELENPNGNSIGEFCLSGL
# [9] = target: T3, Fatty acid synthase; test: FAS thioesterase domain inhibitors, dose response, biochemical, kinetic fluorescence intensity (AID 624326); assay type: functional;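 also: rate of fluorescence rise from hydrolysis of a fluorogenic O-methyl fluorescein ester substrate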
# [10] = target: T4, Corticotropin-releasing factor receptor 2/Corticotropin-releasing factor-binding protein; test: Dose Response confirmation of uHTS hits for small molecule antagonists of the CRF-binding protein and CRF-R2 receptor complex.; assay type: functional; settings: read-out: IC50_Mean
# [11] = target: T5, Zinc finger protein mex-5 (Caenorhabditis elegans, UniProt Q9XUB2); test: MEX-5/TCR-2 RNA interaction inhibitors, dose response, biochemical, C. elegans, fluorescence polarization (AID 1960)
# T5 sequence (Q9XUB2 whole entry): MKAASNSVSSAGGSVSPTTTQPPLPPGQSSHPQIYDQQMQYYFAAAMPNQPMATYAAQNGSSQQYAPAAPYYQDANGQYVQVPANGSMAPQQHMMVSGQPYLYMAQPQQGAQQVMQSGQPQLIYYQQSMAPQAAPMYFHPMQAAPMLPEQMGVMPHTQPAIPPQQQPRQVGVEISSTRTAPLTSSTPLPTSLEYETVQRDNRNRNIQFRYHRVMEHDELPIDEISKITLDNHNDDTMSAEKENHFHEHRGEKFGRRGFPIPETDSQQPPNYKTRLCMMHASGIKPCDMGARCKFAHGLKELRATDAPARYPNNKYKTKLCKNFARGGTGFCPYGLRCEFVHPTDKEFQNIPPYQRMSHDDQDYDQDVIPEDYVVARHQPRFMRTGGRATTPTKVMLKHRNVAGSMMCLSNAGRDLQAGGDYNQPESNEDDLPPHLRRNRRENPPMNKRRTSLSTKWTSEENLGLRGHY
# [12] = target: T6, RNA-binding protein pos-1 (Caenorhabditis elegans, UniProt G5EF15); test: inhibitors of POS-1/mex-3 RNA binding, dose response, biochemical, fluorescence polarization (AID 1964);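 also: purified POS-1 fused to maltose binding protein made in E. coli; potency of compounds blocking POS-1 binding to fluorescent RNA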
# T6 sequence (G5EF15 whole entry): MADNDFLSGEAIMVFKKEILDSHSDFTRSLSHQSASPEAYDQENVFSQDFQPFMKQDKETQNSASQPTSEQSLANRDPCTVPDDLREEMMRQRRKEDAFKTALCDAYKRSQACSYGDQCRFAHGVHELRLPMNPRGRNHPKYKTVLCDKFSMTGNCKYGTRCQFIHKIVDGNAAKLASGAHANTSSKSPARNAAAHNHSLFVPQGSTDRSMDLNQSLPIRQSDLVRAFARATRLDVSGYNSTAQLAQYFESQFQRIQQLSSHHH
# [13] = tested on: Vero; test: cells; assay type: functional; settings: Chlorocebus sabaeus
# [14] = tested on: Streptococcus sp. 'group A'; test: growth inhibition of control SK(-) GAS strain, dose response, counter-screen for streptokinase expression inhibitor project, luminescence, kanamycin, BacTiterGlo, confirmation (AID 1900); assay type: functional, organism-based
# [15] = tested on: Vero; test: cells; assay type: functional, cell-based; settings: Chlorocebus sabaeus
# [16] = tested on: Streptococcus; test: Group A Streptococcus viability loss, dose response, counter-screen for streptokinase expression inhibitor project, luminescence, BacTiterGlo (AID 1915); assay type: functional, organism-based;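 also: potency for reduction of bacterial viability or growth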
# [17] = tested on: HEK293; test: inhibitors of LMP1-driven NF-kB reporter, dose response, cell-based, HEK293, luciferase, cherry-pick (AID 588343); assay type: functional; settings: Homo sapiens
# [18] = cytotoxicity toward NIH3T3 fibroblasts, dose response, counter-screen, cell-based, ATP luminescence, mouse fibroblasts (AID 2010); assay type: functional;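 also: cells exposed to compound for about 90 hours before reading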
# [19] = target: T7, Streptokinase A (Streptococcus pyogenes serotype M1, UniProt P10520); test: S. pyogenes streptokinase expression inhibitors, potency, dose response, plasminogen activation absorbance, OD405 (AID 1914); assay type: functional, Streptococcus pyogenes M1 GAS;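 also: secreted streptokinase activity via plasminogen activation per viability signal from cell pellet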
# T7 sequence (P10520 whole entry): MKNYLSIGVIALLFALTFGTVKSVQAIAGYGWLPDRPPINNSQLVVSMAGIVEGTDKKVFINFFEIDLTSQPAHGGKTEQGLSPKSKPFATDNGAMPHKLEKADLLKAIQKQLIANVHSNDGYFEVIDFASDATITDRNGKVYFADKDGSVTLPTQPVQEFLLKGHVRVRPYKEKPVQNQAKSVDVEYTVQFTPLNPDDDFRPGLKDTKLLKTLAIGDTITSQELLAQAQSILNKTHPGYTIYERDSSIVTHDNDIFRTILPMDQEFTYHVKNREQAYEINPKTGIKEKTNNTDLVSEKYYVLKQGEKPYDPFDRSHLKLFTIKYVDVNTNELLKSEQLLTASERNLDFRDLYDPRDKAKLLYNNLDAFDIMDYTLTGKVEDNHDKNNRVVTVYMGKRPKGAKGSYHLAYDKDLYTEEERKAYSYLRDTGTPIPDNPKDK
# [20] = inhibitors of intracellular T. cruzi replication, confirmation, NIH3T3 host cells, beta-gal luminescence (AID 2044); assay type: functional, cell-based;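 also: intracellular parasites grown in NIH/3T3 mouse fibroblasts as host cells; luminescent beta-galactosidase reporter signal from transgenic T. cruzi replicating inside host cells; inhibitors lower the luminescence signal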
# [21] = Luminescence Cell-Based Dose Confirmation HTS to Identify Inhibitors of Platelet Dense Granule Release. [Related pubchem assays: 1663 (Primary HTS), 1678 (Summary of Project)]; assay type: functional
# [22] = target: Luciferin 4-monooxygenase (Photinus pyralis, UniProt P08659); test: firefly luciferase enzyme inhibitors, dose response, biochemical, luminescence (AID 1891)
# [23] = Shn3 3'UTR reporter inhibitors, dose response, cell-based, Clone20 osteoblasts, firefly luciferase, cherry-picked (AID 624132); assay type: functional;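 also: firefly luciferase luminescence from reporter carrying the Shn3 3'UTR in osteoblasts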
# [24] = HepG2 cell cytotoxicity, dose response, cytotoxicity control for Shn3 inhibitor project, CellTiter-Glo, cherry-picked (AID 624134); assay type: functional, cell-based
# [25] = control 3'UTR Renilla luciferase suppression, dose response, counter-screen for Shn3 inhibitor project, cell-based, Clone20-Shn3RL, cherry-picked (AID 624133); assay type: functional
# [26] = target: Dual specificity tyrosine-phosphorylation-regulated kinase 1A (Rattus norvegicus, UniProt Q63470); assay type: biochemical, Homo sapiens
# T3 sequence (P49327 whole entry, the tested form may be a part): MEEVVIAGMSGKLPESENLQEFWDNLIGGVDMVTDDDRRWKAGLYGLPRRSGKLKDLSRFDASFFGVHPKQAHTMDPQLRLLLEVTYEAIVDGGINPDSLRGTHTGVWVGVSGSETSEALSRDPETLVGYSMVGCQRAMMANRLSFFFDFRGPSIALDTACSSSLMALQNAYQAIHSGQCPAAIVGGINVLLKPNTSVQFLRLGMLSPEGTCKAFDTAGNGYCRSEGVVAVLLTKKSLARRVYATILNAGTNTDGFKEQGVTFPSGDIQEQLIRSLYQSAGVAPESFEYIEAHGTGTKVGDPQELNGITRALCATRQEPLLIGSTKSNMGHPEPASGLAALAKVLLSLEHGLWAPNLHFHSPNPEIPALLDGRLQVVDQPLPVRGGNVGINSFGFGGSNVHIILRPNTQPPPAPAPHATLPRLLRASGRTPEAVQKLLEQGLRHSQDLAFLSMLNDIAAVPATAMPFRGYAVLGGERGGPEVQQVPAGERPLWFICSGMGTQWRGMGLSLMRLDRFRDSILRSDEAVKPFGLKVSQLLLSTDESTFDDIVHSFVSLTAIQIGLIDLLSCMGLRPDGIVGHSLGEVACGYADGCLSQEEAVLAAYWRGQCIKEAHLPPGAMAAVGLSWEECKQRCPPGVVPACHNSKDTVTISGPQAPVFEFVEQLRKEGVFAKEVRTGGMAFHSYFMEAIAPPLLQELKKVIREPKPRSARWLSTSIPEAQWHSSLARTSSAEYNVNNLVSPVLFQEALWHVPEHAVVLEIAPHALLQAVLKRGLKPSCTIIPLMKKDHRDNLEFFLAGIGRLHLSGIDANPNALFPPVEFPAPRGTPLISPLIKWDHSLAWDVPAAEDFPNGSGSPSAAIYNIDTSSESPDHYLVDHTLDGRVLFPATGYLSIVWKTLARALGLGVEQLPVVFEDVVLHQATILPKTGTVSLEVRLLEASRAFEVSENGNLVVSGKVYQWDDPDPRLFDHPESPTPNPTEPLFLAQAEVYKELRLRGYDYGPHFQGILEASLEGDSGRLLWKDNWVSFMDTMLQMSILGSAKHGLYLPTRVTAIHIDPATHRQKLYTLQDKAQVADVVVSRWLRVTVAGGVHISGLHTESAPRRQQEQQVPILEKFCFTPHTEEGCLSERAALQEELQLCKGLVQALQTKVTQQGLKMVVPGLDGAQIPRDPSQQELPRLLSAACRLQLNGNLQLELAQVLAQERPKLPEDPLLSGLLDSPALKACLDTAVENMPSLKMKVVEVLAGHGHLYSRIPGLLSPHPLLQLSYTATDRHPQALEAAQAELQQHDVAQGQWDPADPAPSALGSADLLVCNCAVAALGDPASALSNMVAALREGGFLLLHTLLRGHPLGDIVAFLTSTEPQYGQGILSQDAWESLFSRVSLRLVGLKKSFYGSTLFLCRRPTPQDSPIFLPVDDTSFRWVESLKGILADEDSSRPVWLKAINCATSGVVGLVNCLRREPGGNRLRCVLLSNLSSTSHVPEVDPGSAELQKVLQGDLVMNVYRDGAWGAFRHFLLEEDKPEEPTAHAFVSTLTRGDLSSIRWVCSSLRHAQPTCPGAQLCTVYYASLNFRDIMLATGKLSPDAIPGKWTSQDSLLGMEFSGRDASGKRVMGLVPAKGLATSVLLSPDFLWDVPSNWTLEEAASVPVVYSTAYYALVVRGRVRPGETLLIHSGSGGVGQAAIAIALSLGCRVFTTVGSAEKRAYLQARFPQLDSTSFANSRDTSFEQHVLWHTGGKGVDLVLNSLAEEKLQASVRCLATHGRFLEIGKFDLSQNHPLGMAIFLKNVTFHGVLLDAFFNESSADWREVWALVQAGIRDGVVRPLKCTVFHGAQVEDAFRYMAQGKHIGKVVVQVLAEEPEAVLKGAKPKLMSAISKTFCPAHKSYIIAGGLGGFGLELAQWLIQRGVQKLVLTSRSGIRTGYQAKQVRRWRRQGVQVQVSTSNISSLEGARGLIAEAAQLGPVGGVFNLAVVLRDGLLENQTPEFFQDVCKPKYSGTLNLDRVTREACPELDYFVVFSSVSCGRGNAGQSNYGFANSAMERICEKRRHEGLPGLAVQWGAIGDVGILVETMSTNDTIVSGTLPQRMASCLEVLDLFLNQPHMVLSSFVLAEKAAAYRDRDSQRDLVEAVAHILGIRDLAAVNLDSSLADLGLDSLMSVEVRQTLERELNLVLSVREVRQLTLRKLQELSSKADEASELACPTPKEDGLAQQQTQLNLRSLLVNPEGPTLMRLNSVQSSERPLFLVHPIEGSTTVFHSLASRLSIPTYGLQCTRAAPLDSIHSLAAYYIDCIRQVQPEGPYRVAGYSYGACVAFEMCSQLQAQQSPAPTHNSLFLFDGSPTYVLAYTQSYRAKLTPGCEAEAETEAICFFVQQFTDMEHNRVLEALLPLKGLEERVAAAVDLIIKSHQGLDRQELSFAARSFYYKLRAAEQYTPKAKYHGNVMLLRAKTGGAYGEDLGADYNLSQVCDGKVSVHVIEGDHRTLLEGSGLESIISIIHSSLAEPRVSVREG
# Chain of Glucose-6-phosphate 1-dehydrogenase (P11413 whole entry): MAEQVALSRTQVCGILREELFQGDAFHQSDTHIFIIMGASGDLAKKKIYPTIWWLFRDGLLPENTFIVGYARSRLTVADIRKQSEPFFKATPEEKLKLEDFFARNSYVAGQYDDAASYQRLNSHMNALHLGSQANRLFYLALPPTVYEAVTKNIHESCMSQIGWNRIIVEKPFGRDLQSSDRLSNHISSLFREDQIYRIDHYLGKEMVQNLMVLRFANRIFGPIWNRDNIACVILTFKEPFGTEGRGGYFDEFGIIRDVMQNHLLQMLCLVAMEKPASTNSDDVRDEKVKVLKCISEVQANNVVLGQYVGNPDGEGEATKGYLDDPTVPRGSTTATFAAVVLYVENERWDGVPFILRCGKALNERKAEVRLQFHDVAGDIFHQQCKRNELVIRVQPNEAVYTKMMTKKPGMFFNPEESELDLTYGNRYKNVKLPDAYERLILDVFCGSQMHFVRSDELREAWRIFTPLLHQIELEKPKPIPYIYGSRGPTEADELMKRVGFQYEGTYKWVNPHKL
# Chain of G-protein coupled receptor 55 (Q9Y2T6 whole entry): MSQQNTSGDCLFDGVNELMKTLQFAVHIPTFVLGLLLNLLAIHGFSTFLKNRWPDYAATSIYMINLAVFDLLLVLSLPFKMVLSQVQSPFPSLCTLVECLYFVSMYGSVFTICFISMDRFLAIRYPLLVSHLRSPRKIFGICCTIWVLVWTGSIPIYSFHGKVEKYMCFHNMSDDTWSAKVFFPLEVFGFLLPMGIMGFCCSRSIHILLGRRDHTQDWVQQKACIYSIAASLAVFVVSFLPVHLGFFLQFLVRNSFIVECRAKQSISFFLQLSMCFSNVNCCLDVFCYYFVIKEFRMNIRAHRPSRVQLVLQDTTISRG
# Chain of Luciferin 4-monooxygenase (P08659 whole entry): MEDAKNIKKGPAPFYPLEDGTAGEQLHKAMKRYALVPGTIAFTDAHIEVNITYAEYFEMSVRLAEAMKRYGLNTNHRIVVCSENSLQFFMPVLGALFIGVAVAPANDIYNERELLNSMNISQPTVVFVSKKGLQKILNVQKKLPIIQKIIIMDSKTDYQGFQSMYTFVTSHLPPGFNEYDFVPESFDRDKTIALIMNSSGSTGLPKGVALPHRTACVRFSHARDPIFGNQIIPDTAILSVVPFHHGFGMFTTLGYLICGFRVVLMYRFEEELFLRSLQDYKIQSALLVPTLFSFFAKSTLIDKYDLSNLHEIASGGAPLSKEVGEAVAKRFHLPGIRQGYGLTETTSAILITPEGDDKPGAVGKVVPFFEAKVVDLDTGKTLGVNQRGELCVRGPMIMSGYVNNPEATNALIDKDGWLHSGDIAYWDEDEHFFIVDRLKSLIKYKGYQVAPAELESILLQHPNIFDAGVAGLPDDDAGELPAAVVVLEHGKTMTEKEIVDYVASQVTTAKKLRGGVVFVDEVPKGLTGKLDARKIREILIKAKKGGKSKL
structure (smiles),measurement,setting,value
Cn1c(-c2sccc2OCc2cccc(C(F)(F)F)c2)n[nH]c1=S,EC50,[1],> 195 µM (not active)
same,IC50,[2],> 80 µM (inactive)
COc1ccc(NN=C2C(=O)NC(=S)NC2=O)cc1,IC50,[3],29.1 µM (inactive)
same,IC50,[4],16.6 µM (active)
O=C(O)c1ccc(Cl)c(NC(=S)NC(=O)c2cccc(COc3ccccc3)c2)c1,IC50,[5],2.3 µM (active)
same,IC50,[6],> 20 µM (inactive)
same,IC50,[7],6.11 µM (active)
same,EC50,[8],> 53 µM (inactive)
same,IC50,[9],4.47 µM (active)
same,IC50,[10],< 368 nM (active)
O=C(CN1C(=O)/C(=C\C=C\c2ccccc2)SC1=S)Nc1ccc(F)cc1,IC50,[3],7.54 µM (active)
same,IC50,[4],5.21 µM (active)
same,EC50,[11],> 300 µM (not active)
same,EC50,[12],> 300 µM (not active)
COc1ccc(C(=O)NNC(=S)NC(=O)/C=C/c2cccs2)cc1,CC50,[13],> 25 µM (active)
same,EC50,[14],802 nM (active)
same,IC50,[15],> 25 µM (active)
same,EC50,[16],4.2 µM (active)
CCCCOc1ccc(OC(=O)Nc2cc(Cl)ccc2OC)cc1,IC50,[6],> 20 µM (inactive)
same,EC50,[8],> 53 µM (inactive)
same,IC50,[10],< 368 nM (active)
O=c1c2cnn(-c3ccccc3)c2nc(-c2cccs2)n1-c1ccc(Cl)cc1,AC50,[17],1.78 µM (active)
Oc1c(N=NC(S)=Nc2ccccc2F)c2ccccc2n1Cc1cccc(Cl)c1,EC50,[18],1.71 µM (active)
same,EC50,[19],> 150 µM (not active)
same,EC50,[14],2690 nM (active)
same,AC50,[17],4.15 µM (active)
same,EC50,[20],676 nM (active)
same,EC50,[21],> 112 µM (not active)
same,EC50,[22],> 112 µM (not active)
same,EC50,[16],> 150 µM (not active)
Cc1ccc(N2CC(C(=O)OCC(=O)c3ccc([N+](=O)[O-])cc3)CC2=O)cc1 (stereo not drawn),IC50,[2],> 80 µM (inactive)
CCC1CSC(Nc2ccc(C(=O)/C=C/c3ccc(OC)c(OC)c3)cc2)=N1 (stereo not drawn),AC50,[23],4.47 µM (active)
same,AC50,[24],51.2 µM (active)
same,CC50,[13],18.1 µM (active)
same,AC50,[25],6.23 µM (active)
same,IC50,[15],23.5 µM (active)
CC(=O)Nc1cccc(-c2cnc(N)c(C(=O)c3cccnc3)n2)c1,AC50,[17],21.4 µM (active)
same,AC50,[26],193 nM (active)
